Results as given in patent publication US7941211B2, “Preloading with macular pigment to improve photodynamic treatment of retinal vascular disorders” (ZeaVision, LLC., priority 2003, dated 2011).
Entries after “also recorded” stand apart in the source; their conditions may differ.

Assays:
[1] = test system: vascular endothelial growth factor (VEGF); details: verteporfin-laser treatment; cited from earlier work
[2] = test system: inflammatory chorioretinal diseases; details: in vivo; cited from earlier work
wet macular degeneration = experiment: ZeaVision customer survey: zeaxanthin supplements and PDT treatment (Example 2); assay type: in vivo, human
From the text: In the summer of 2004, the assignee company (ZeaVision LLC) began searching for customers who were: (i) taking zeaxanthin supplements they had purchased from ZeaVision, and (ii) had received one or more PDT treatments, for wet macular degeneration. They did this by sending postcards to customers, asking them to contact ZeaVision if they had received PDT treatment. Those customers who responded were briefly interviewed by phone by the customer support staff, who asked questions and filled in a worksheet that had been prepared to help guide the interviews. Most of these patients with age-related eye problems are in their 70's or 80's. They could not always provide exact dates when talking from memory during a phone call, and no efforts were made to check their actual medical records, or to consult with the ophthalmologists who performed their PDT treatments. In addition, nearly all of these patients were taking one or more additional vitamin supplements, such as lutein, Coenzyme Q10, and/or the AREDS formulation (all of which are commonly recommended by friends, relatives, and physicians), and at least one patient (identified as patient one, below) also received a steroid injection as part of their PDT therapy. […] Responses from patients who had been taking zeaxanthin for at least a month prior to a PDT treatment include the following examples: […]

[3] = test system: wet macular degeneration (subfoveal CNV); experiment: Case report: zeaxanthin pre-loading before verteporfin-laser PDT (Example 1); assay type: in vivo, human
From the text: Such a candidate became known to the Applicant, in mid to late 2003. Because of certain personal and business connections, they were contacted by a person, who had been told that (i) […] eyesight was deteriorating rapidly, due to macular degeneration, and (ii) they should take care of any business, financial, legal, and other matters as soon as possible, before […] eyesight became even worse. This person made their plight (and their severe depression, due to the very negative prognosis they had received from an expert) known to the Applicant. In response, the Applicant informed the patient that they (the Applicant) had made a number of charitable donations to support research at the Johns Hopkins School of Medicine, where some of the world's foremost experts in macular degeneration work. […] (the Applicant) offered to see whether they could obtain expedited treatment for the patient, by making some phone calls to people they knew who worked there. The patient accepted that offer, and was seen and treated not long thereafter, by a top expert at the Wilmer Eye Institute, a highly respected eye care and research institute affiliated with Johns Hopkins.
This patient had been taking zeaxanthin for a number of weeks, prior to being examined and treated at the Wilmer Eye Institute. Their dosage was believed to be 20 milligrams per day, from taking two 10 milligram capsules (purchased from ZeaVision LLC) per day, usually with meals. They also took various other vitamin supplements during the course of their treatment, and afterwards.
An adult at the time, was suffering from wet macular degeneration.
At about that time, the patient began taking zeaxanthin supplements. It is believed that their typical daily dosage was 20 milligrams, from two 10 milligram capsules per day, usually taken with meals. The patient is also believed to have taken various other nutritional supplements during the relevant span of time, although their full contents, dosages, and durations are not known.
According to notes created by the ophthalmologist at the Wilmer Institute, obtained by the Applicant with approval from the patient, the patient suffered from subfoveal CNV in their right eye. […] According to the patient, the ophthalmologist advised them that their course of treatment likely would require 5 or 6 verteporfin-laser treatments, over a span of up to about 2 years.
His left eye was similar in appearance but questionable in extent, and there was no proven disease progression. Therefore, the ophthalmologist recommended careful monitoring but no PDT at that time.
Despite that advice, the patient continued taking zeaxanthin.

[4] = even at very high dosages; cited from earlier work
[5] = target: Pi isoform of glutathione-S-transferase (GSTP1) (Homo sapiens, UniProt P09211); details: in vitro conditions; cited from earlier work
inflammatory cytokines = details: cited from earlier work
retina = details: in vivo, po; cited from earlier work
poultry = details: compared against preparation of dietary 3R,3′R stereoisomer; test in Spain; cited from earlier work
[6] = Patient one, ZX from June 2004, first and only PDT about 2 months later, also steroid injection
[7] = right eye, January 2004, six months after PDT
[8] = right eye, October 2003, three months after PDT, zeaxanthin 20 mg/day

Pi isoform of glutathione-S-transferase (GSTP1), sequence (P09211 whole entry, canonical isoform): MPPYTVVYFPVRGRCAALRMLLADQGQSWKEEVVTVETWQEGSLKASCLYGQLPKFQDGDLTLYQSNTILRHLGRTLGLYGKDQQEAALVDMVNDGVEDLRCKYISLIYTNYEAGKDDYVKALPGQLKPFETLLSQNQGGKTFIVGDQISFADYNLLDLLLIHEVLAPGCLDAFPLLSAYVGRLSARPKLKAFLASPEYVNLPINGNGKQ

verteporfin
release of hormones that increase blood vessel growth (VEGF) [1]: stimulates, rather than suppresses
performance relative to verteporfin treatment of wet macular degeneration [2]: tended to perform better, and more effectively

CC1=C(/C=C/C(C)=C/C=C/C(C)=C/C=C/C=C(C)/C=C/C=C(C)/C=C/C2=C(C)C[C@@H](O)CC2(C)C)C(C)(C)C[C@H](O)C1 [zeaxanthin]
need for further PDT sessions (doctor's statement) (wet macular degeneration; Patient four, ZX begun before second PDT session, first session without ZX did not stabilize): appeared to not need any more PDT sessions
need for further PDT treatments (doctor's statement) (wet macular degeneration; [6]): may not need to have any more treatments
results of PDT treatment (wet macular degeneration; [6]): results were good
ophthalmologist's assessment of eyes at followup (wet macular degeneration; Patient three, October 2004): their eyes had stabilized
doctor's assessment of eyes at followup (wet macular degeneration; Patient three, ZX for some months before second PDT in May 2004, late June 2004): their eyes had gotten better, and appeared to be stable
vision in PDT-treated left eye (wet macular degeneration; Patient two, 10 mg/day ZX from May 2004, four PDT sessions April-October 2004, October 2004): 20/30
patient's description of their results (wet macular degeneration; Patient two, 10 mg/day ZX, October 2004): super-good
ophthalmologist's assessment of sight (wet macular degeneration; Patient two, 10 mg/day ZX, PDT on left eye): sight restored and improved
adverse side effects (wet macular degeneration; all patients surveyed): did not cause any adverse side effects of any sort
interference with efficacy of PDT treatment (wet macular degeneration; all patients surveyed): did not interfere with the efficacy of PDT treatment
overall benefit (wet macular degeneration; in at least some patients): provided at least some benefits
condition of PDT-treated eye (doctor's statement) (wet macular degeneration; parent of respondent OD, PDT on right eye after three months of ZX): appeared to be stable
condition of fellow eye with dry macular degeneration (respondents' statements) (wet macular degeneration; several respondents with PDT in one eye only): remain stable, or in some cases improve
findings in the eye not previously treated with PDT ([3]; left eye, March 2004, patient taking zeaxanthin, no PDT so far): growth of choroidal neovascularization compared to January 2004
ophthalmologist's assessment of PDT results, as orally reported by the patient ([3]; left eye, three months after PDT of March 2004): results were good
biomicroscopic findings (subretinal hemorrhage) [3, 7]: clearing of the subretinal hemorrhage that was noted along the inferonasal aspect of the treated area
fluorescein angiography [3, 7]: still showed some increased staining in the area where the hemorrhage had cleared
leakage from CNV ([3]; right eye, March 2004): no new leakage from CNV to suggest the need for any treatment
biomicroscopic findings (subretinal hemorrhage and fluid) [3, 8]: clearing of much of the subretinal hemorrhage along the nasal aspect of the posterior pole with no new subretinal fluid
fluorescein angiography [3, 8]: no fluorescein leakage to suggest the need for any additional treatment at this time except at the inferonasal aspect of the treated area
ophthalmologist's assessment of the PDT results ([3]; right eye, three months after first PDT, zeaxanthin 20 mg/day): much better than expected; also recorded: far better than expected
pathological changes in animal tests [4]: did not cause any pathological changes, of any sort
binding affinity of macular enzymes [5]: relatively high affinity

CC1=C(/C=C/C(C)=C/C=C/C(C)=C/C=C/C=C(C)/C=C/C=C(C)/C=C/C2=C(C)C(=O)[C@@H](O)CC2(C)C)C(C)(C)C[C@H](O)C1=O [astaxanthin]
effect on inflammatory and similar responses (inflammatory cytokines): can help reduce inflammatory and similar responses

CC1=C[C@H](O)CC(C)(C)[C@H]1/C=C/C(C)=C/C=C/C(C)=C/C=C/C=C(C)/C=C/C=C(C)/C=C/C1=C(C)C[C@@H](O)CC1(C)C [lutein, reference compound]
binding affinity of macular enzymes [5]: will not bind to lutein with any significant affinity

CC1=C(/C=C/C(C)=C/C=C/C(C)=C/C=C/C=C(C)/C=C/C=C(C)/C=C/C2=C(C)C(=O)CCC2(C)C)C(C)(C)CCC1=O [canthaxanthin]
retinal deposition (retina): abnormal retinal deposition

meso-zeaxanthin
performance as colour additive for poultry (poultry): did not perform satisfactorily
